The values below come from patent publication US11541028B2, “Peptide pharmaceuticals for treatment of NASH and other disorders” (Mederis Diabetes LLC, priority 2018, dated 2023).

One may read the EC50 as the midpoint of the concentration-response curve.

One assay relates to db/db mice. Kind of assay: Glucose-lowering activity in db/db mice. To be noted: for body weight changes versus vehicle / food consumption versus liraglutide / time for which elevated blood glucose level was reduced to the normal range: db/db mice; for food consumption versus liraglutide: day 2; for time for which elevated blood glucose level was reduced to the normal range: 250 nmol/kg subcutaneously at t=0 and 7 hr (FIG. 9). Format: in vivo. As to the method:
The 60 female db/db B6BKS (D) Leprdb/J (strain 000697) mice for this study were about 8-9 weeks old at arrival (Jackson Laboratory, Bar Harbor, Me.). […] One group of 8 female mice served as the vehicle control and received the vehicle, 0.2% BSA in saline, pH 7.4. One additional group of 8 female mice received the positive-control compound, liraglutide, at a dose level of 50 nmoles/kg. The test compounds, vehicle and positive-control compound were subcutaneously injected at a dose volume of 6 mL/kg on day 1 at about 0, 7 and 24 hours.
Clinical observations were conducted at receipt, prior to randomization, and daily from days 1 to 5. Body weights were measured and recorded at receipt, prior to randomization, and daily from days 1 to 5. Food consumption was measured and recorded daily from days 1 to 5. Blood samples for glucose analysis were collected pre-study (day −3) and at 0, 1, 2, 4, 8, 10, 24, 48, 72 and 96 hours following the first dose on day 1. At study termination all animals were euthanized, and the carcasses were discarded without further evaluation.

The next assay concerns the target T1, human GLP-1 receptor (Homo sapiens, UniProt P43220).
T1 construct: host or cells: CHO cells
Kind of assay: DiscoveRx LeadHunter cellular assay, cAMP stimulation, GLP-1 receptor in CHO cells. Format: cell-based. To be noted: human GLP-1 receptor in CHO cells (DiscoveRx); read-out: EC50 cAMP GLP-1 R.

The next assay addresses T2, human glucagon receptor (Homo sapiens, UniProt P47871).
T2 construct: host or cells: CHO cells
Kind of assay: DiscoveRx LeadHunter cellular assay, cAMP stimulation, glucagon receptor in CHO cells. In kind it is cell-based.

The next assay has as its system DIO-NASH mice. The experiment in a line: Biopsy-proven DIO-NASH mouse model. Format: in vivo. The following applies: for hepatocyte ballooning score (0-2), pre-study to post-study biopsy: animals that initially exhibited ballooning. The protocol:
All mice entering the study were stratified based on liver pre-biopsy at week −3. Only mice with a fibrosis score ≥1 and a steatosis score ≥2 were included in the study. The stratified mice were randomized into treatment groups based on liver collagen type 1 alpha 1 (collal) quantification at week −3.
Body weight was measured daily for the entire study period. Food intake was measured daily for the first 14 days, and then weekly until study end. EchoMRI whole-body scanning was performed in week 11. At study end were measured plasma levels of alanine transaminase (ALT), aspartate transaminase (AST), γ-glutamyltransferase (GGT), triglycerides (TG) and total cholesterol (TC), liver levels of TG, TC, col1α1 and galectin-3, the expression levels of a wide variety of mRNAs in the liver, and the liver weight, and were performed liver biopsy/necropsy to assess steatosis, inflammation, ballooning and fibrosis of the liver.
For blood and plasma assays, blood samples were collected in heparinized tubes and plasma was separated and stored at −80° C. until analysis. ALT, AST, GGT, TG and TC levels were measured using commercial kits (Roche Diagnostics, Germany) and the Cobas™ C-501 autoanalyzer according to the manufacturer's instructions.
For liver tissue assays, the triglycerides and cholesterol content in the liver was measured using the Triglyceride and Cholesterol reagents (Cat. No. 22-045-795 and Cat. No. 22-045-780, respectively, Roche Diagnostics, Germany) and the Cobas™ C-501 autoanalyzer. Homogenized liver tissue was heated to 80-100° C. twice and centrifuged in a microcentrifuge, and the triglycerides and cholesterol content in the resulting supernatant was measured.
The body composition of the mice was assessed by an EchoMRI 3-1 body composition analyzer (EchoMRI, U.S.). Unanesthetised mice were placed in a plastic tube inside the MRI scanner for about 80 seconds. The body composition was expressed as fat tissue mass, fat-free tissue mass (lean tissue mass) and water.
For liver biopsy, mice were anesthetized by inhalation of isoflurane (2-3%). A small abdominal incision was made in the midline, and the left lateral lobe of the liver was exposed. A cone-shaped wedge of liver tissue (about 50 mg) was excised from the distal portion of the lobe and fixated in 10% neutral-buffered formalin (4% formaldehyde) for histology. The cut surface of the liver was instantly electro-coagulated using bipolar coagulation (ERBE VIO 100 electrosurgical unit). After pre-biopsy, the liver was returned to the abdominal cavity, the abdominal wall was sutured, and the skin was closed with staples. For post-operative recovery, the mice were administered carprofen (5 mg/kg) subcutaneously on the day of operation and on days 1 and 2 post-operation.
For histological staining, in brief, slides with paraffin-embedded sections were de-paraffinated in xylene and then rehydrated in a series of graded ethanol. For hematoxylin and eosin (H&E) staining, the slides were incubated in Mayer's Hematoxylin (Dako), washed in tap water, stained in Eosin Y solution (Sigma-Aldrich), hydrated, mounted with Pertex and then allowed to dry before scanning. For picrosirius red (PSR) staining, the slides were incubated in Weigert's iron hematoxylin (Sigma-Aldrich), washed in tap water, stained in picrosirius red (Sigma-Aldrich) and then washed twice in acidified water. Excess water was removed by shaking the slides, and the slides were dehydrated in three changes of 99% ethanol, cleared in xylene, mounted with Pertex and then allowed to dry before scanning.
For collagen type 1 alpha 1 (collal) and galectin-3 (GAL3) immunohistochemical (IHC) staining, after antigen retrieval and blocking of endogenous peroxidase activity, slides were incubated with the primary antibody (Cat. No. 1310-01 from Southern Biotech for col1α1, or Cat. No. 125402 from Biolegend for galectin-3). […]

The mark [1] stands for this setting: 12 weeks QD (SP-1373 5/10 nmole/kg SC; semaglutide 10 nmole/kg SC; elafibranor 78 mole/kg PO).
The mark [2] stands for this setting: 12 weeks QD (SP-1373 5/10 nmole/kg SC; semaglutide 10 nmole/kg SC; elafibranor PO).

T2 sequence (P47871 26-477): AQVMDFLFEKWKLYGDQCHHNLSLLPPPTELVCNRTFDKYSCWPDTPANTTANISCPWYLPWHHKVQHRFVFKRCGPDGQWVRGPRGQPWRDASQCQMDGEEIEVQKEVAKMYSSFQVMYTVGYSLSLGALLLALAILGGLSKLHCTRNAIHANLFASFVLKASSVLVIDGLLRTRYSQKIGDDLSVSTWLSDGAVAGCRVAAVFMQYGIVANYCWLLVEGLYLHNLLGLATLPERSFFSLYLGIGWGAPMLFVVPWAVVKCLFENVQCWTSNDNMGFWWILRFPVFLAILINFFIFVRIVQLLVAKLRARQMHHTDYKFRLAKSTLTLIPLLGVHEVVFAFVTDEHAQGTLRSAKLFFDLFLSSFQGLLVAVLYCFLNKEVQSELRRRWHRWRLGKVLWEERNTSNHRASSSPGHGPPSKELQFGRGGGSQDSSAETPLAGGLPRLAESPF
T1 sequence (P43220 24-463): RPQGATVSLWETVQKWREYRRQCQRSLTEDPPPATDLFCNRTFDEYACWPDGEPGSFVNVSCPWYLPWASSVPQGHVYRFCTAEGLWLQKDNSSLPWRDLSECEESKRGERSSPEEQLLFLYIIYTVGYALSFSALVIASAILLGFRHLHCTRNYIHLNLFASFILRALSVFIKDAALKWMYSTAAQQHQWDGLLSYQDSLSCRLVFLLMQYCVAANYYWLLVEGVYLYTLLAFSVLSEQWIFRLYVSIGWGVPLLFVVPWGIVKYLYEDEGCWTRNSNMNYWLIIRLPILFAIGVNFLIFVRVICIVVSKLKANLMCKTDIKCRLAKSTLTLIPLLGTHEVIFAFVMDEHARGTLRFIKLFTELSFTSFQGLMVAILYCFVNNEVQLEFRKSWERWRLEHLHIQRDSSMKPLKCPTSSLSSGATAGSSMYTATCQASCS
Procedure for human GLP-1 receptor: (§1) A further series of cellular assays was carried out with standard cellular assays (DiscoveRx, LeadHunter assays) using readout of cAMP stimulation or arrestin activation. Compounds were weighed precisely in an amount of about 1 mg and shipped to DiscoveRx for dilution and assay.
Procedure for human glucagon receptor: as §1

For `CCCCCCCCCCCCCCCCCCO[C@@H]1O[C@H](CO[C@H]2O[C@H](C(=O)NCCCC[C@H](NC(=O)[C@@H](NC(=O)[C@H](Cc3ccccc3)NC(=O)[C@H](CCC(=O)O)NC(=O)[C@@H]3CCCCNC(=O)CC[C@H](NC(=O)[C@H](CC(=O)O)NC(=O)[C@H](CC(C)C)NC(=O)[C@H](Cc4ccc(O)cc4)NC(=O)[C@H](CCCCN)NC(=O)[C@H](CO)NC(=O)[C@H](Cc4ccc(O)cc4)NC(=O)[C@H](CC(=O)O)NC(=O)[C@H](CO)NC(=O)[C@@H](NC(=O)[C@H](Cc4ccccc4)NC(=O)[C@@H](NC(=O)CNC(=O)[C@H](CCC(N)=O)NC(=O)C(C)(C)NC(=O)[C@@H](N)Cc4c[nH]cn4)[C@@H](C)O)[C@@H](C)O)C(=O)N[C@@H](CCC(N)=O)C(=O)N[C@@H](C)C(=O)N[C@@H](C)C(=O)N3)[C@@H](C)CC)C(=O)N[C@@H](Cc3c[nH]c4ccccc34)C(=O)N[C@@H](CC(C)C)C(=O)N[C@@H](CC(C)C)C(=O)N[C@@H](CCC(N)=O)C(=O)N[C@H](C(N)=O)[C@@H](C)O)[C@H](O)[C@H](O)[C@H]2O)[C@@H](O)[C@H](O)[C@H]1O` [EU-A1026], in the assay with db/db mice (high-dose (300 nmoles/kg) sc at 0, 7 and 24 hours, days 2 and 3), the “body weight changes versus vehicle” value was “Significant body weight changes versus vehicle”. In addition, in the assay on db/db mice (high-dose (300 nmoles/kg)), the “food consumption versus liraglutide” value is “significantly different from liraglutide”. Besides, the “body weight changes versus vehicle” value in the assay with db/db mice (low-dose (100 nmoles/kg) sc at 0, 7 and 24 hours, days 3 and 4) is “Significant body weight changes versus vehicle”. Besides, the “food consumption versus liraglutide” value in the assay on db/db mice (low-dose (100 nmoles/kg)) is recorded as “significantly different from liraglutide”. For the same compound, in the assay with db/db mice (dose 300 nmole/kg sc), the “db/db Mice-Mean Blood Glucose (mg/dL) 0 hr” value amounted to 531 mg/dL, the “db/db Mice-Mean Blood Glucose (mg/dL) 10 hr” value is given as 399 mg/dL, the “db/db Mice-Mean Blood Glucose (mg/dL) 24 hr” value came out at 438 mg/dL and the “db/db Mice-Mean Blood Glucose (mg/dL) 48 hr” value was determined as 505 mg/dL. The EC50 on human GLP-1 receptor is 0.034 nM. Further, a half-maximal effect at human glucagon receptor (EC50) was put at 0.486 nM.

With `CCCCCCCCCCO[C@@H]1O[C@H](C(=O)NCCCC[C@H](NC(=O)[C@@H](NC(=O)[C@H](Cc2ccccc2)NC(=O)[C@H](CCC(=O)O)NC(=O)[C@@H]2CCCCNC(=O)CC[C@H](NC(=O)[C@H](CC(=O)O)NC(=O)[C@H](CC(C)C)NC(=O)[C@H](Cc3ccc(O)cc3)NC(=O)[C@H](CCCCN)NC(=O)[C@H](CO)NC(=O)[C@H](Cc3ccc(O)cc3)NC(=O)[C@H](CC(=O)O)NC(=O)[C@H](CO)NC(=O)[C@@H](NC(=O)[C@H](Cc3ccccc3)NC(=O)[C@@H](NC(=O)CNC(=O)[C@H](CCC(N)=O)NC(=O)C(C)(C)NC(=O)[C@@H](N)Cc3c[nH]cn3)[C@@H](C)O)[C@@H](C)O)C(=O)N[C@@H](CCC(N)=O)C(=O)N[C@@H](C)C(=O)N[C@@H](C)C(=O)N2)[C@@H](C)CC)C(=O)N[C@@H](Cc2c[nH]c3ccccc23)C(=O)N[C@@H](CC(C)C)C(=O)N[C@@H](CC(C)C)C(=O)N[C@@H](CCC(N)=O)C(=O)N[C@H](C(N)=O)[C@@H](C)O)[C@@H](O)[C@H](O)[C@H]1O` [EU-A1167], the “time for which elevated blood glucose level was reduced to the normal range” value in the assay with db/db mice was “around 72 hr”. Further, in the assay with db/db mice (dose 250 nmole/kg sc), the “db/db Mice-Mean Blood Glucose (mg/dL) 0 hr” value came out at 379 mg/dL, the “db/db Mice-Mean Blood Glucose (mg/dL) 10 hr” value worked out at 171 mg/dL, the “db/db Mice-Mean Blood Glucose (mg/dL) 24 hr” value stood at 117 mg/dL and the “db/db Mice-Mean Blood Glucose (mg/dL) 48 hr” value stood at 113 mg/dL.

On to `CCCCCCCCCCCO[C@@H]1O[C@H](C(=O)NCCCC[C@H](NC(=O)[C@@H](NC(=O)[C@H](Cc2ccccc2)NC(=O)[C@H](CCC(=O)O)NC(=O)[C@@H]2CCCCNC(=O)CC[C@H](NC(=O)[C@H](CC(=O)O)NC(=O)[C@H](CC(C)C)NC(=O)[C@H](Cc3ccc(O)cc3)NC(=O)[C@H](CCCCN)NC(=O)[C@H](CO)NC(=O)[C@H](Cc3ccc(O)cc3)NC(=O)[C@H](CC(=O)O)NC(=O)[C@H](CO)NC(=O)[C@@H](NC(=O)[C@H](Cc3ccccc3)NC(=O)[C@@H](NC(=O)CNC(=O)[C@H](CCC(N)=O)NC(=O)C(C)(C)NC(=O)[C@@H](N)Cc3c[nH]cn3)[C@@H](C)O)[C@@H](C)O)C(=O)N[C@@H](CCC(N)=O)C(=O)N[C@@H](C)C(=O)N[C@@H](C)C(=O)N2)[C@@H](C)CC)C(=O)N[C@@H](Cc2c[nH]c3ccccc23)C(=O)N[C@@H](CC(C)C)C(=O)N[C@@H](CC(C)C)C(=O)N[C@@H](CCC(N)=O)C(=O)N[C@H](C(N)=O)[C@@H](C)O)[C@@H](O)[C@H](O)[C@H]1O` [EU-A1168], for which the “time for which elevated blood glucose level was reduced to the normal range” value in the assay with db/db mice is on record as “around 72 hr”. Moreover, in the assay on db/db mice (dose 250 nmole/kg sc), the “db/db Mice-Mean Blood Glucose (mg/dL) 0 hr” value amounted to 380 mg/dL, the “db/db Mice-Mean Blood Glucose (mg/dL) 10 hr” value is recorded as 133 mg/dL, the “db/db Mice-Mean Blood Glucose (mg/dL) 24 hr” value came out at 169 mg/dL and the “db/db Mice-Mean Blood Glucose (mg/dL) 48 hr” value turned out to be 164 mg/dL.

Take `CSc1ccc(C(=O)/C=C/c2cc(C)c(OC(C)(C)C(=O)O)c(C)c2)cc1` [elafibranor]: the “liver fibrosis score (0-4), picrosirius red” value in the assay on DIO-NASH mice (12 weeks QD (SP-1373 5/10 nmole/kg SC; elafibranor PO)) was “reduced liver fibrosis in the majority of animals”. In the assay on DIO-NASH mice (setting [1]), the “liver triglycerides (TG) level” value is “little or no effect”; the liver weight result is “increased liver weight”; the “total liver collagen type 1 alpha 1 staining (measure of liver fibrosis)” value was “modest effect”; the “total liver galectin-3 staining (biomarker for liver inflammation and fibrosis)” value was “essentially no effect”. Further, in the assay with DIO-NASH mice (setting [2]), the body weight result is “less body weight decrease”; the “liver total cholesterol (TC) level” value is “little or no effect”; the “hepatocyte ballooning score (0-2), pre-study to post-study biopsy” value is “showed no ballooning”.

For semaglutide, in the assay with DIO-NASH mice (setting [2]), the body weight entry is recorded as “less body weight decrease” and the “hepatocyte ballooning score (0-2), pre-study to post-study biopsy” value is recorded as “showed no ballooning”. In addition, in the assay with DIO-NASH mice (semaglutide 10 nmole/kg SC QD 12 weeks), the “liver steatosis, histology with hematoxylin and eosin stain” value was “moderate decrease in hepatosteatosis”.
